Read-outs that look alike come from different tables or passages of the source. Positions of bridges follow the written chain, without caps; N, C: chain ends. Non-standard residues stand in square brackets, D forms with d. Residues, ends and D or L forms follow the SMILES beside them. Trp(1-Me) = Cn1cc(C[C@H](N)C(=O)O)c2ccccc21; 2Nal = N[C@@H](Cc1ccc2ccccc2c1)C(=O)O; Sar = CNCC(=O)O
How the values were obtained:
[1] = Solubility test at 10 mg/mL (visual inspection and light scattering); type: physicochemical; settings: for Solubility, Condition 1: Acetate pH 4; for Solubility, Condition 2: Acetate pH 5; for Solubility, Condition 3: Phosphate pH 6; for Solubility, Condition 4: Phosphate pH 7; for Solubility, Condition 5: Phosphate pH 7.5
[2] = test system: classical complement pathway; assay: In vitro haemolysis assay (inhibition of classical complement pathway); type: cell-based, human; settings: human serum, sensitized sheep red blood cells
How it was run: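 Compound dilutions preincubated 15 min at room temperature with diluted human serum (titrated per batch for 70-90% maximal haemolysis), then antibody-sensitized sheep RBC (10^7/well) added for 30 min at 37 °C in Tris/casein buffer, pH 7.4. Stopped with EDTA; haemolysis read at 405 nm; IC50 by 4PL fit.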

[3] = Table 3, given as upper bounds, read-out: IC50, inhibition of hemolysis

SMILES	Solubility, Condition 1 [1]	Solubility, Condition 2 [1]	Solubility, Condition 3 [1]	Solubility, Condition 4 [1]	Solubility, Condition 5 [1]	IC50 [2, 3] [nM]	IC50 ([2]; Table 4, valine 3 vs isoleucine 3 pairs, read-out: CP hemolysis IC50) [nM]
CC[C@H](C)[C@@H]1NC(=O)[C@@H](NC(=O)CN(C)C(=O)[C@H](CCC(=O)O)NC(=O)[C@H](CO)NC(C)=O)CSSC[C@@H](C(=O)N(C)CC(=O)N[C@@H](CCC(=O)O)C(=O)N[C@@H](C)C(N)=O)NC(=O)[C@H](CCCNC(=N)N)NC(=O)[C@H](Cc2c[nH]cn2)NC(=O)[C@H](CCC(=O)O)NC(=O)CNC(=O)[C@H](Cc2c[nH]c3ccccc23)NC(=O)[C@H](CC(=O)O)NC(=O)[C@H](CCC(N)=O)NC(=O)[C@H](Cc2cn(C)c3ccccc23)NC1=O [Compound 81] (Ac-SE[Sar]CI[Trp(1-Me)]QDWGEHRC[Sar]EA-NH2; disulfide 4-14)	− (“−” denotes lack of solubility at the given condition, as UV absorbance at 340 nm exceeds 0.1 AU and/or it is visibly turbid or contains particles)	− (“−” denotes lack of solubility at the given condition, as UV absorbance at 340 nm exceeds 0.1 AU and/or it is visibly turbid or contains particles)	+ (“+” denotes solubility at the given condition, as determined by UV absorbance being less than 0.1 AU at 340 nm and the sample being clear when manually inspected)	+ (“+” denotes solubility at the given condition, as determined by UV absorbance being less than 0.1 AU at 340 nm and the sample being clear when manually inspected)	+ (“+” denotes solubility at the given condition, as determined by UV absorbance being less than 0.1 AU at 340 nm and the sample being clear when manually inspected)	< 100	
CC[C@H](C)[C@@H]1NC(=O)[C@@H](NC(=O)[C@H](Cc2ccccc2)NC(C)=O)CSSC[C@@H](C(=O)N[C@H](C(=O)NCC(=O)N[C@@H](C)C(=O)N[C@@H](CCC(=O)O)C(=O)N[C@@H](CO)C(N)=O)[C@@H](C)O)NC(=O)[C@H](CCCNC(=N)N)NC(=O)[C@H](Cc2c[nH]cn2)NC(=O)[C@H](CCC(=O)O)NC(=O)CN(C)C(=O)[C@H](Cc2c[nH]c3ccccc23)NC(=O)[C@H](CC(=O)O)NC(=O)[C@H](CCC(N)=O)NC(=O)[C@H](Cc2cn(C)c3ccccc23)NC1=O [Compound 72, Ac-FC(1)I[1-Me-Trp]QDW[Sar]EHRC(1)TGAES-NH2] (Ac-FCI[Trp(1-Me)]QDW[Sar]EHRCTGAES-NH2; disulfide 2-12)	− (“−” denotes lack of solubility at the given condition, as UV absorbance at 340 nm exceeds 0.1 AU and/or it is visibly turbid or contains particles)	− (“−” denotes lack of solubility at the given condition, as UV absorbance at 340 nm exceeds 0.1 AU and/or it is visibly turbid or contains particles)	+ (“+” denotes solubility at the given condition, as determined by UV absorbance being less than 0.1 AU at 340 nm and the sample being clear when manually inspected)	+ (“+” denotes solubility at the given condition, as determined by UV absorbance being less than 0.1 AU at 340 nm and the sample being clear when manually inspected)	+ (“+” denotes solubility at the given condition, as determined by UV absorbance being less than 0.1 AU at 340 nm and the sample being clear when manually inspected)	< 100	
CC[C@H](C)[C@H](NC(C)=O)C(=O)N[C@H]1CSSC[C@@H](C(=O)N[C@H](C(=O)NCC(=O)N[C@@H](C)C(=O)N[C@@H](CCC(=O)O)C(=O)N[C@@H](CO)C(N)=O)[C@@H](C)O)NC(=O)[C@H](CCCNC(=N)N)NC(=O)[C@H](Cc2c[nH]cn2)NC(=O)[C@H](CCC(=O)O)NC(=O)CNC(=O)[C@H](Cc2c[nH]c3ccccc23)NC(=O)[C@H](CC(=O)O)NC(=O)[C@H](CCC(N)=O)NC(=O)[C@H](Cc2ccc3ccccc3c2)NC(=O)[C@H]([C@@H](C)CC)NC1=O [Compound 52] (Ac-ICI[2Nal]QDWGEHRCTGAES-NH2; disulfide 2-12)	− (“−” denotes lack of solubility at the given condition, as UV absorbance at 340 nm exceeds 0.1 AU and/or it is visibly turbid or contains particles)	− (“−” denotes lack of solubility at the given condition, as UV absorbance at 340 nm exceeds 0.1 AU and/or it is visibly turbid or contains particles)	+ (“+” denotes solubility at the given condition, as determined by UV absorbance being less than 0.1 AU at 340 nm and the sample being clear when manually inspected)	+ (“+” denotes solubility at the given condition, as determined by UV absorbance being less than 0.1 AU at 340 nm and the sample being clear when manually inspected)	+ (“+” denotes solubility at the given condition, as determined by UV absorbance being less than 0.1 AU at 340 nm and the sample being clear when manually inspected)	< 100	
CC[C@H](C)[C@H](NC(=O)[C@H](C)NC(=O)[C@H](CO)NC(=O)CNC(=O)[C@H](CCC(=O)O)NC(C)=O)C(=O)N[C@H]1CSSC[C@@H](C(=O)N(C)CC(=O)N[C@@H](CCC(=O)O)C(N)=O)NC(=O)[C@H](CCCNC(=N)N)NC(=O)[C@H](Cc2c[nH]cn2)NC(=O)[C@H](CCC(=O)O)NC(=O)CNC(=O)[C@H](Cc2c[nH]c3ccccc23)NC(=O)[C@H](CC(=O)O)NC(=O)[C@H](CCC(N)=O)NC(=O)[C@H](Cc2c[nH]c3ccccc23)NC(=O)[C@H]([C@@H](C)CC)NC1=O [Compound 28] (Ac-EGSAICIWQDWGEHRC[Sar]E-NH2; disulfide 6-16)	+ (“+” denotes solubility at the given condition, as determined by UV absorbance being less than 0.1 AU at 340 nm and the sample being clear when manually inspected)	+ (“+” denotes solubility at the given condition, as determined by UV absorbance being less than 0.1 AU at 340 nm and the sample being clear when manually inspected)	+ (“+” denotes solubility at the given condition, as determined by UV absorbance being less than 0.1 AU at 340 nm and the sample being clear when manually inspected)	+ (“+” denotes solubility at the given condition, as determined by UV absorbance being less than 0.1 AU at 340 nm and the sample being clear when manually inspected)	+ (“+” denotes solubility at the given condition, as determined by UV absorbance being less than 0.1 AU at 340 nm and the sample being clear when manually inspected)	< 100	88
CC[C@H](C)[C@@H]1NC(=O)[C@@H](NC(=O)[C@@H](NC(=O)[C@H](CCC(=O)O)NC(C)=O)[C@@H](C)CC)CSSC[C@@H](C(=O)N[C@H](C(=O)N[C@@H](CCC(=O)O)C(N)=O)[C@@H](C)O)NC(=O)[C@H](CCCNC(=N)N)NC(=O)[C@H](Cc2c[nH]cn2)NC(=O)[C@H](CCC(=O)O)NC(=O)CNC(=O)[C@H](Cc2c[nH]c3ccccc23)NC(=O)[C@H](CC(=O)O)NC(=O)[C@H](CCC(N)=O)NC(=O)[C@H](Cc2c[nH]c3ccccc23)NC1=O [Compound 33] (Ac-EICIWQDWGEHRCTE-NH2; disulfide 3-13)	− (“−” denotes lack of solubility at the given condition, as UV absorbance at 340 nm exceeds 0.1 AU and/or it is visibly turbid or contains particles)	− (“−” denotes lack of solubility at the given condition, as UV absorbance at 340 nm exceeds 0.1 AU and/or it is visibly turbid or contains particles)	+ (“+” denotes solubility at the given condition, as determined by UV absorbance being less than 0.1 AU at 340 nm and the sample being clear when manually inspected)	+ (“+” denotes solubility at the given condition, as determined by UV absorbance being less than 0.1 AU at 340 nm and the sample being clear when manually inspected)	+ (“+” denotes solubility at the given condition, as determined by UV absorbance being less than 0.1 AU at 340 nm and the sample being clear when manually inspected)	< 100	

Source: patent US11965039B2, “Compstatin analogues and their medical uses” (priority 2018, dated 2024)
